Source: patent publication US12441730B2, “PRMT5 inhibitors” (Merck Sharp & Dohme LLC, priority 2019, dated 2025)
Read-outs that look alike come from different tables or passages of the source.

How the values were obtained:
[1] = target: T1, Full-length (FL)-PRMT5-MEP50 enzyme complex (Homo sapiens, UniProt O14744); assay: PRMT5-MEP50 Enzyme Methylation Assay (Version A); format: biochemical
T1 construct: Full-length (FL)-PRMT5-MEP50 enzyme complex (recombinant proteins from baculovirus-transfected Sf21 cells: FL-PRMT5; MW=73837 kDa and FL-MEP50; MW=38614); made in house; host or cells: baculovirus-transfected Sf21 cells
Method in brief: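 Compound was pre-incubated with enzyme for 60 min, then reacted 150 min at 37° C. at final 1.0 nM PRMT5-MEP50, 15 μM SAM and 75 nM biotinylated H4R3(Me1) peptide, in 50 mM Bicine pH 8.0 with 1% DMSO. SAMDI mass-spectrometric readout of Me1→Me2 conversion. EC50 from 4- or 7-parameter regression.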

[2] = test system: symmetric dimethylation of arginine (SDMA) of PRMT5 substrates in MCF-7 cells; assay: PRMT5 Cell Target Engagement (TE) Assay; format: cell-based; settings: 3 days treatment, SDMA high content imaging
Method in brief: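 MCF-7 cells treated 3 days at 37 °C with a ten-point 1:3 titration from 10000 nM. Fixed cells immunostained with anti-SDMA and Alexa488 secondary; nuclear fluorescence quantified by high-content imaging versus DMSO wells, with IC50 from a 4-parameter fit.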

[3] = second value of 7 parameter biphasic fit, read-out: Enzyme Methylation Assay Version A (EC50 2)
[4] = single EC50 = 4 parameter single site sigmoidal fit, EC50 1 = first value of 7 parameter biphasic fit, read-out: Enzyme Methylation Assay Version A (EC50 or EC50 1)

T1 sequence (O14744 whole entry): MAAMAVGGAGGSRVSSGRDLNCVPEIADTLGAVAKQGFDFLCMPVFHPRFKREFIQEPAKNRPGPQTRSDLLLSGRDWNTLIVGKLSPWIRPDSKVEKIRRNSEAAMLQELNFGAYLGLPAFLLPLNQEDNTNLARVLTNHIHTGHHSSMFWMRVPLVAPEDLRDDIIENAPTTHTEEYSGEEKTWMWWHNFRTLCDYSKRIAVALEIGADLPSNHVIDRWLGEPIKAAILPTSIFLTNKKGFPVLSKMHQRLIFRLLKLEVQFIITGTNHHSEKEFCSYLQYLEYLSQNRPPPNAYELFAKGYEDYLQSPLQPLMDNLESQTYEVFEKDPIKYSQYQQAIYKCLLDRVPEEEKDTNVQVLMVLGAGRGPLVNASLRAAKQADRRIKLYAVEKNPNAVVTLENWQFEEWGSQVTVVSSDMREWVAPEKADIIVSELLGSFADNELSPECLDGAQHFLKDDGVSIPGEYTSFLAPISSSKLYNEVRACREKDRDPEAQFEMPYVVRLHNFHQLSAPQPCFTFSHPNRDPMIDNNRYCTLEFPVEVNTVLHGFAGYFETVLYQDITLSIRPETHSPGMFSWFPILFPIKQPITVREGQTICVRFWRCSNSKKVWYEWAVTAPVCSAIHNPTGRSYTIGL
T1 sequence (Q9BQA1 whole entry partner): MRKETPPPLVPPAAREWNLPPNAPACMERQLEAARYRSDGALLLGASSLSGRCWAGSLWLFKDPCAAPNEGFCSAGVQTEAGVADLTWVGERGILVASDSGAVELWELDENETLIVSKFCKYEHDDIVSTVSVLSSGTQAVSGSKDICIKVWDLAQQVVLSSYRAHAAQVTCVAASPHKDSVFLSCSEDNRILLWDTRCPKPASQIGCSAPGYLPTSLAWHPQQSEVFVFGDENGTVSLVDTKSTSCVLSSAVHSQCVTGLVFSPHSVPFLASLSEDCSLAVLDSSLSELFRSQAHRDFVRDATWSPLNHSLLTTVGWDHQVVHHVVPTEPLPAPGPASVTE

## Cc1ccc(C(=O)N2CC[C@]3(Cc4ccccc4CN3)[C@H](O)C2)c(C)n1 [Example 220, (2,6-dimethyl-3-pyridinyl)[(3R,3′R)-3′-hydroxy-1,4-dihydro-1′H,2H-spiro[isoquinoline-3,4′-piperidin]-1′-yl]methanone]
[1]; [3]
  EC50: 2600 nM
[1]; [4]
  EC50: 83.2 nM
[2]; Homo sapiens, MCF7, 72 h
  EC50: 2100 nM

## CO[C@H](C)c1cc(N2Cc3cnn(C)c3C2)cn2cc(C(=O)N3CC[C@]4(Cc5ccccc5CN4)[C@H](O)C3)nc12 [Example 231, [(3R,3′R)-3′-hydroxy-1,4-dihydro-1′H,2H-spiro[isoquinoline-3,4′-piperidin]-1′-yl]{8-[(1R)-1-methoxyethyl]-6-(1-methyl-4,6-dihydropyrrolo[3,4-c]pyrazol-5(1H)-yl)imidazo[1,2-a]pyridin-2-yl}methanone]
[1]; [4]
  EC50: 11.3 nM
[2]; Homo sapiens, MCF7, 72 h
  EC50: 66.4 nM

## COC(C)c1cc(C(C)C)cn2cc(C(=O)N3CC[C@]4(Cc5ccccc5CN4)[C@H](O)C3)nc12 (stereo partly drawn) [Example 84, A diastereomer of [(3R,3′R)-3′-hydroxy-1,4-dihydro-1′H,2H-spiro[isoquinoline-3,4′-piperidin]-1′-yl][6-isopropyl-8-(1-methoxyethyl)imidazo[1,2-a]pyridin-2-yl]methanone]
[1]; [3]
  EC50: 292 nM
[1]; [4]
  EC50: 0.464 nM
[2]; Homo sapiens, MCF7, 72 h
  EC50: 10.9 nM

## Cc1c(Br)cnc2ncc(C(=O)N3CC[C@]4(Cc5ccccc5CN4)[C@H](O)C3)n12 [Example 141, (6-bromo-5-methylimidazo[1,2-a]pyrimidin-3-yl)[(3R,3′R)-3′-hydroxy-1,4-dihydro-1′H,2H-spiro[isoquinoline-3,4′-piperidin]-1′-yl]methanone]
[1]; [3]
  EC50: 3720 nM
[1]; [4]
  EC50: 101 nM
[2]; Homo sapiens, MCF7, 72 h
  EC50: 4380 nM

## Cc1cc(Cl)c2nc(C(=O)N3CC[C@]4(Cc5ccccc5CN4)[C@H](O)C3)cn2c1 [Example 207, (8-chloro-6-methylimidazo[1,2-a]pyridin-2-yl)[(3R,3′R)-3′-hydroxy-1,4-dihydro-1′H,2H-spiro[isoquinoline-3,4′-piperidin]-1′-yl]methanone]
[1]; [3]
  EC50: 288 nM
[1]; [4]
  EC50: 0.382 nM
[2]; Homo sapiens, MCF7, 72 h
  EC50: 27.6 nM

## Cc1cc(C(F)(F)F)cn2cc(C(=O)N3CC[C@]4(Cc5ccccc5CN4)[C@H](O)C3)nc12 [Example 35, ((3R,3’R)-3′-hydroxy-1,4-dihydro-2H-spiro[isoquinoline-3,4′-piperidin]-1′-yl)(8-methyl-6-(trifluoromethyl)imidazo[1,2-a]pyridin-2-yl)methanone]
[1]; [3]
  EC50: 248 nM
[1]; [4]
  EC50: 0.766 nM
[2]; Homo sapiens, MCF7, 72 h
  EC50: 5.66 nM

## COCC1CC(C)Cn2cc(C(=O)N3CC[C@]4(Cc5ccccc5CN4)[C@H](O)C3)nc21 (single isomer, unassigned) [Example 158]
[1]; [3]
  EC50: 29800 nM
[1]; [4]
  EC50: 71.6 nM
[2]
  EC50: 1700 nM

## O=C(c1cn(-c2ccc(F)cc2)cn1)N1CC[C@]2(Cc3ccccc3CN2)[C@H](O)C1 [Example 212, [1-(4-fluorophenyl)-1H-imidazol-4-yl][(3R,3′R)-3′-hydroxy-1,4-dihydro-1′H,2H-spiro[isoquinoline-3,4′-piperidin]-1′-yl]methanone]
[1]; [3]
  EC50: 21400 nM
[1]; [4]
  EC50: 902 nM
[2]; Homo sapiens, MCF7, 72 h
  EC50: 3120 nM

## COCCOc1nc(Br)cn2cc(C(=O)N3CC[C@]4(Cc5ccccc5CN4)[C@H](O)C3)nc12 [Example 19, (6-bromo-8-(2-methoxyethoxy)imidazo[1,2-a]pyrazin-2-yl)((3R,3’R)-3′-hydroxy-1,4-dihydro-2H-spiro[isoquinoline-3,4′-piperidin]-1′-yl)methanone]
[1]; [3]
  EC50: 105 nM
[1]; [4]
  EC50: 0.305 nM
[2]; Homo sapiens, MCF7, 72 h
  EC50: 10.2 nM

## Cc1c(C2CC2)cnc2nc(C(=O)N3CC[C@]4(Cc5ccccc5CN4)[C@H](O)C3)cn12 [Example 64, (6-cyclopropyl-5-methylimidazo[1,2-a]pyrimidin-2-yl)[(3R,3′R)-3′-hydroxy-1,4-dihydro-1′H,2H-spiro[isoquinoline-3,4′-piperidin]-1′-yl]methanone]
[1]; [3]
  EC50: 9770 nM
[1]; [4]
  EC50: 19.1 nM
[2]; Homo sapiens, MCF7, 72 h
  EC50: 756 nM

## O=C(c1cn2cccc(Cl)c2n1)N1CC[C@]2(Cc3ccccc3CN2)[C@H](O)C1 [Example 206, (8-chloroimidazo[1,2-a]pyridin-2-yl)[(3R,3′R)-3′-hydroxy-1,4-dihydro-1′H,2H-spiro[isoquinoline-3,4′-piperidin]-1′-yl]methanone]
[1]; [3]
  EC50: 7240 nM
[1]; [4]
  EC50: 4.33 nM
[2]; Homo sapiens, MCF7, 72 h
  EC50: 363 nM

## N#CCCC1CC(C(F)(F)F)Cn2cc(C(=O)N3CC[C@]4(Cc5ccccc5CN4)[C@H](O)C3)nc21 (single isomer, unassigned) [Example 165, 3-((6R,8S or 6S,8R)-2-((3R,3′R)-3′-hydroxy-1,4-dihydro-2H-spiro[isoquinoline-3,4′-piperidine]-1′-carbonyl)-6-(trifluoromethyl)-5,6,7,8-tetrahydroimidazo[1,2-a]pyridin-8-yl)propanenitrile]
[1]; [3]
  EC50: 26600 nM
[1]; [4]
  EC50: 82.2 nM
[2]
  EC50: 841 nM

## N#Cc1cc(Cl)c2nc(C(=O)N3CC[C@]4(Cc5ccccc5CN4)[C@H](O)C3)cn2c1 [Example 215, 8-chloro-2-{[(3R,3′R)-3′-hydroxy-1,4-dihydro-1′H,2H-spiro[isoquinoline-3,4′-piperidin]-1′-yl]carbonyl}imidazo[1,2-a]pyridine-6-carbonitrile]
[1]; [4]
  EC50: 56.7 nM
[2]; Homo sapiens, MCF7, 72 h
  EC50: 122 nM

## COc1ccc2nc(C(=O)N3CC[C@]4(Cc5ccccc5CN4)[C@H](O)C3)cn2c1 [Example 43, ((3R,3’R)-3′-hydroxy-1,4-dihydro-2H-spiro[isoquinoline-3,4′-piperidin]-1′-yl)(6-methoxyimidazo[1,2-a]pyridin-2-yl)methanone]
[1]; [3]
  EC50: 1440 nM
[1]; [4]
  EC50: 3.22 nM
[2]; Homo sapiens, MCF7, 72 h
  EC50: 19.1 nM

## CCC1Oc2ccc(C(=O)N3CC[C@]4(Cc5ccccc5CN4)[C@H](O)C3)cc2NC1=O (single isomer, unassigned) [Example 104, (2R or 2S)-2-ethyl-6-((3R,3′R)-3′-hydroxy-1,4-dihydro-2H-spiro[isoquinoline-3,4′-piperidine]-1′-carbonyl)-2H-benzo[b][1,4]oxazin-3(4H)-one]
[1]; [3]
  EC50: 1410 nM
[1]; [4]
  EC50: 1.44 nM
[2]
  EC50: 83.1 nM

## Cc1cnc2nc(C(=O)N3CC[C@]4(Cc5ccccc5CN4)[C@H](O)C3)cn2c1C [Example 127, (5,6-dimethylimidazo[1,2-a]pyrimidin-2-yl)[(3R,3′R)-3′^-hydroxy-1,4-dihydro-1′H,2H-spiro[isoquinoline-3,4′-piperidin]-1′-yl]methanone]
[1]; [3]
  EC50: 34300 nM
[1]; [4]
  EC50: 61.7 nM
[2]; Homo sapiens, MCF7, 72 h
  EC50: 3950 nM

## Cc1cn2cc(C(=O)N3CC[C@]4(Cc5ccccc5CN4)[C@H](O)C3)nc2nc1C [Example 126, (6,7-dimethylimidazo[1,2-a]pyrimidin-2-yl)[(3R,3′R)-3′-hydroxy-1,4-dihydro-1′H,2H-spiro[isoquinoline-3,4′-piperidin]-1′-yl]methanone]
[1]; [3]
  EC50: 5010 nM
[1]; [4]
  EC50: 7.15 nM
[2]; Homo sapiens, MCF7, 72 h
  EC50: 399 nM

## Cc1nc2nc(C(=O)N3CC[C@]4(Cc5ccccc5CN4)[C@H](O)C3)cn2cc1C1CC1 [Example 63, (6-cyclopropyl-7-methylimidazo[1,2-a]pyrimidin-2-yl)[(3R,3′R)-3′-hydroxy-1,4-dihydro-1′H,2H-spiro[isoquinoline-3,4′-piperidin]-1′-yl]methanone]
[1]; [3]
  EC50: 417 nM
[1]; [4]
  EC50: 0.583 nM
[2]; Homo sapiens, MCF7, 72 h
  EC50: 45.8 nM
